Results reported in patent US20060069132A1, “Azolecarboxamide herbicides” (priority 2004, published 2006).

Tests used:
barnyardgrass [1] = experiment: Test A pre-/postemergence herbicide test; format: in vivo, Echinochloa crus-galli
How it was run: (§1)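 Sandy loam soil given preemergence directed spray; plants at 2 to 10 cm, one- to two-leaf stage, sprayed to runoff postemergence, compounds in non-phytotoxic solvent with surfactant. Injury rated visually versus untreated controls after about ten greenhouse days, 0 (no effect) to 100 (complete control); dash means not tested.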

large crabgrass [2] = experiment: Test A pre-/postemergence herbicide test; format: in vivo, Digitaria sanguinalis
How it was run: as §1

giant foxtail [3] = experiment: Test A pre-/postemergence herbicide test; format: in vivo, Setaria faberi
How it was run: as §1

morningglory [4] = experiment: Test A pre-/postemergence herbicide test; format: in vivo, Ipomoea spp.
How it was run: as §1

redroot pigweed = experiment: Test A pre-/postemergence herbicide test; format: in vivo, Amaranthus retroflexus
How it was run: as §1

velvetleaf [5] = experiment: Test A pre-/postemergence herbicide test; format: in vivo, Abutilon theophrasti
How it was run: as §1

barnyardgrass [6] = experiment: Test B pre-/postemergence herbicide test; format: in vivo, Echinochloa crus-galli; conditions: for Barnyardgrass plant response rating: postemergence, visual rating, scale 0 (no effect) to 100 (complete control)
How it was run: (§2)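 Evaluation is visual, comparing treated with control plants on a scale where 0 means no effect and 100 means full control. Treatments were preemergence, or postemergence on seedlings 2–18 cm tall, and held 13–15 days in the greenhouse.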

Surinam grass = experiment: Test B pre-/postemergence herbicide test; format: in vivo, Urochloa decumbens; conditions: for Surinam Grass plant response rating: postemergence, visual rating, scale 0 (no effect) to 100 (complete control)
How it was run: (§3)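 Seeds were planted and treated preemergence with compounds formulated in a non-phytotoxic solvent mixture containing surfactant, while plants at the 1- to 4-leaf stage (2 to 18 cm) received postemergence sprays. Flooded paddy plants were grown to the 2-leaf stage. After 13 to 15 days in a greenhouse, injury was visually rated 0–100 against untreated controls.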

cocklebur = experiment: Test B pre-/postemergence herbicide test; format: in vivo, Xanthium strumarium; conditions: for Cocklebur plant response rating: postemergence, visual rating, scale 0 (no effect) to 100 (complete control)
How it was run: as §2

corn = experiment: Test B pre-/postemergence herbicide test; format: in vivo, Zea mays; conditions: for Corn plant response rating: postemergence, visual rating, scale 0 (no effect) to 100 (complete control)
How it was run: as §3

large crabgrass [7] = experiment: Test B pre-/postemergence herbicide test; format: in vivo, Digitaria sanguinalis; conditions: for Crabgrass, Large plant response rating: postemergence, visual rating, scale 0 (no effect) to 100 (complete control)
How it was run: as §3

giant foxtail [8] = experiment: Test B pre-/postemergence herbicide test; format: in vivo, Setaria faberi; conditions: for Foxtail, Giant plant response rating: postemergence, visual rating, scale 0 (no effect) to 100 (complete control)
How it was run: as §3

lambsquarters = experiment: Test B pre-/postemergence herbicide test; format: in vivo, Chenopodium album; conditions: for Lambsquarters plant response rating: postemergence, visual rating, scale 0 (no effect) to 100 (complete control)
How it was run: as §3

morningglory [9] = experiment: Test B pre-/postemergence herbicide test; format: in vivo, Ipomoea coccinea; conditions: for Morningglory plant response rating: postemergence, visual rating, scale 0 (no effect) to 100 (complete control)
How it was run: as §2

pigweed = experiment: Test B pre-/postemergence herbicide test; format: in vivo, Amaranthus retroflexus; conditions: for Pigweed plant response rating: postemergence, visual rating, scale 0 (no effect) to 100 (complete control)
How it was run: as §3

rice [10] = experiment: Test B pre-/postemergence herbicide test; format: in vivo, Oryza sativa; conditions: preemergence
How it was run: as §3

velvetleaf [11] = experiment: Test B pre-/postemergence herbicide test; format: in vivo, Abutilon theophrasti; conditions: for Velvetleaf plant response rating: postemergence, visual rating, scale 0 (no effect) to 100 (complete control)
How it was run: as §3

blackgrass = experiment: Test B postemergence herbicide test; format: in vivo, Alopecurus myosuroides; conditions: postemergence, visual rating, scale 0 (no effect) to 100 (complete control)
How it was run: (§4)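 Each value is a visual 0–100 response rating taken against controls 13 to 15 days after treatment in the greenhouse. Plants received formulated chemical postemergence at the 1- to 4-leaf stage or, in flooded paddy, at the 2-leaf stage.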

wheat = experiment: Test B postemergence herbicide test; format: in vivo, Triticum aestivum; parameters: key to Wheat plant response rating: 0 = no effect, 100 = complete control; conditions: postemergence, visual rating, scale 0 (no effect) to 100 (complete control)
How it was run: (§5)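 Scale 0–100: zero equals no visible effect, 100 complete control, judged by eye relative to controls. Timing: 13 to 15 days in greenhouse post-treatment. Growth stage at spraying: two leaves (paddy) or one to four leaves, 2–18 cm (postemergence).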

wild oat = experiment: Test B postemergence herbicide test; format: in vivo, Avena fatua; conditions: postemergence, visual rating, scale 0 (no effect) to 100 (complete control)
How it was run: as §5

rice [12] = experiment: Test B flooded paddy test; format: in vivo, Oryza sativa; conditions: 1000 g ai/ha, visual rating, scale 0 to 100 (0 no effect, 100 complete control), 13 to 15 days
How it was run: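 Visual ratings, 0 (no effect) to 100 (complete control), made versus controls after 13–15 d greenhouse. Paddy plants treated at 2-leaf stage; postemergence plants at 1- to 4-leaf stage, 2–18 cm tall.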

[13] = system: small flower umbrella sedge; experiment: Test B flooded paddy test; format: in vivo, Cyperus difformis; conditions: 1000 g ai/ha, visual rating, scale 0 to 100 (0 no effect, 100 complete control), 13 to 15 days
How it was run: as §4

ducksalad = experiment: Test B flooded paddy test; format: in vivo, Heteranthera limosa; conditions: 1000 g ai/ha, visual rating, scale 0 to 100 (0 no effect, 100 complete control), 13 to 15 days
How it was run: as §4

barnyardgrass [14] = experiment: Test B flooded paddy test; format: in vivo, Echinochloa crus-galli; conditions: 1000 g ai/ha, visual rating, scale 0 to 100 (0 no effect, 100 complete control), 13 to 15 days
How it was run: as §4

[15] = Postemergence, 500 g ai/ha, 0 to 100 scale, 0 no effect, 100 complete control
[16] = Postemergence, 2000 g ai/ha, 0 to 100 scale, 0 no effect, 100 complete control
[17] = Preemergence, 2000 g ai/ha, visual rating, 0 to 100 scale (0 no effect, 100 complete control)
[18] = preemergence, 500 g ai/ha, visual injury, 0 to 100 scale (0 no effect, 100 complete control)
[19] = 125 g ai/ha, 0 = no effect, 100 = complete control, preemergence
[20] = 500 g ai/ha, visual rating 0-100, 0 no effect, 100 complete control, preemergence

Cc1nc(C(C)(C)C)sc1C(=O)Nc1cccc(C(=O)NCCF)c1 [Compound 200]
Barnyardgrass plant response rating (barnyardgrass [1]; [15]): 10 | Plant response rating, Barnyardgrass (barnyardgrass [1]; [16]): 35 | Barnyardgrass plant response rating (barnyardgrass [1]; [17]): 45 | Barnyardgrass plant response rating (barnyardgrass [1]; [18]): 35 | Crabgrass, Large plant response rating (large crabgrass [2]; [15]): 10 | Plant response rating, Crabgrass, Large (large crabgrass [2]; [16]): 25 | Crabgrass, Large plant response rating (large crabgrass [2]; [17]): 75 | Crabgrass, Large plant response rating (large crabgrass [2]; [18]): 70 | Foxtail, Giant plant response rating (giant foxtail [3]; [15]): 0 | Plant response rating, Foxtail, Giant (giant foxtail [3]; [16]): 20 | Foxtail, Giant plant response rating (giant foxtail [3]; [17]): 60 | Foxtail, Giant plant response rating (giant foxtail [3]; [18]): 35 | Morningglory plant response rating (morningglory [4]; [15]): 35 | Plant response rating, Morningglory (morningglory [4]; [16]): 45 | Morningglory plant response rating (morningglory [4]; [17]): 60 | Morningglory plant response rating (morningglory [4]; [18]): 15 | Pigweed plant response rating (redroot pigweed; [15]): 50 | Plant response rating, Pigweed (redroot pigweed; [16]): 60 | Pigweed plant response rating (redroot pigweed; [17]): 95 | Pigweed plant response rating (redroot pigweed; [18]): 80 | Velvetleaf plant response rating (velvetleaf [5]; [15]): 10 | Plant response rating, Velvetleaf (velvetleaf [5]; [16]): 10 | Velvetleaf plant response rating (velvetleaf [5]; [17]): 35 | Velvetleaf plant response rating (velvetleaf [5]; [18]): 20 | Barnyardgrass plant response rating (0 to 100 scale) (barnyardgrass [6]; [19]): 0 | Plant response rating, Barnyardgrass (barnyardgrass [6]; [20]): 20 | Barnyardgrass plant response rating (barnyardgrass [6]; 125 g ai/ha): 0 | Barnyardgrass plant response rating (barnyardgrass [6]; 500 g ai/ha): 10 | Surinam Grass plant response rating (0 to 100 scale) (Surinam grass; [19]): 0 | Plant response rating, Surinam Grass (Surinam grass; [20]): 10 | Surinam Grass plant response rating (Surinam grass; 125 g ai/ha): 10 | Surinam Grass plant response rating (Surinam grass; 500 g ai/ha): 20 | Cocklebur plant response rating (0 to 100 scale) (cocklebur; [19]): 0 | Plant response rating, Cocklebur (cocklebur; [20]): 0 | Cocklebur plant response rating (cocklebur; 125 g ai/ha): 10 | Cocklebur plant response rating (cocklebur; 500 g ai/ha): 20 | Corn plant response rating (0 to 100 scale) (corn; [19]): 0 | Plant response rating, Corn (corn; [20]): 0 | Corn plant response rating (corn; 125 g ai/ha): 10 | Corn plant response rating (corn; 500 g ai/ha): 30 | Crabgrass, Large plant response rating (0 to 100 scale) (large crabgrass [7]; [19]): 50 | Plant response rating, Crabgrass, Large (large crabgrass [7]; [20]): 90 | Crabgrass, Large plant response rating (large crabgrass [7]; 125 g ai/ha): 0 | Crabgrass, Large plant response rating (large crabgrass [7]; 500 g ai/ha): 10 | Foxtail, Giant plant response rating (0 to 100 scale) (giant foxtail [8]; [19]): 0 | Plant response rating, Foxtail, Giant (giant foxtail [8]; [20]): 10 | Foxtail, Giant plant response rating (giant foxtail [8]; 125 g ai/ha): 10 | Foxtail, Giant plant response rating (giant foxtail [8]; 500 g ai/ha): 10 | Lambsquarters plant response rating (0 to 100 scale) (lambsquarters; [19]): 20 | Plant response rating, Lambsquarters (lambsquarters; [20]): 80 | Lambsquarters plant response rating (lambsquarters; 125 g ai/ha): 60 | Lambsquarters plant response rating (lambsquarters; 500 g ai/ha): 60 | Morningglory plant response rating (0 to 100 scale) (morningglory [9]; [19]): 0 | Plant response rating, Morningglory (morningglory [9]; [20]): 10 | Morningglory plant response rating (morningglory [9]; 125 g ai/ha): 0 | Morningglory plant response rating (morningglory [9]; 500 g ai/ha): 40 | Pigweed plant response rating (0 to 100 scale) (pigweed; [19]): 10 | Plant response rating, Pigweed (pigweed; [20]): 90 | Pigweed plant response rating (pigweed; 125 g ai/ha): 10 | Pigweed plant response rating (pigweed; 500 g ai/ha): 40 | Rice plant response rating (0 to 100 scale) (rice [10]; 125 g ai/ha, 0 = no effect, 100 = complete control): 0 | Plant response rating, Rice (rice [10]; 500 g ai/ha, visual rating 0-100, 0 no effect, 100 complete control): 10 | Velvetleaf plant response rating (0 to 100 scale) (velvetleaf [11]; [19]): 0 | Plant response rating, Velvetleaf (velvetleaf [11]; [20]): 20 | Velvetleaf plant response rating (velvetleaf [11]; 125 g ai/ha): 10 | Velvetleaf plant response rating (velvetleaf [11]; 500 g ai/ha): 30 | Blackgrass plant response rating (blackgrass; 125 g ai/ha): 0 | Blackgrass plant response rating (blackgrass; 500 g ai/ha): 10 | Wheat plant response rating (wheat; 125 g ai/ha): 0 | Wheat plant response rating (wheat; 500 g ai/ha): 0 | Oat, Wild plant response rating (wild oat; 125 g ai/ha): 0 | Oat, Wild plant response rating (wild oat; 500 g ai/ha): 10 | Rice plant response rating (rice [12]): 0 | Sedge, Umbrella plant response rating [13]: 50 | Ducksalad plant response rating (ducksalad): 0 | Barnyardgrass plant response rating (barnyardgrass [14]): 0
